From patent publication US20240382488A1, “NEK7 INHIBITORS” (Halia Therapeutics, Inc., priority 2021, published 2024)

Target: T1, full-length recombinant human Nek7 (Homo sapiens, UniProt Q8TDX7)
T1 construct: full-length recombinant human Nek7; GST (N); purchased SignalChem N09-10G; host or cells: Sf9 insect cells (baculovirus)
Assay: NEK7 Enzymatic Assay
Assay type: biochemical
Details: radiometric [32P]-ATP kinase assay, casein substrate 20 μM, Nek7 70 nM, 2 hours room temperature
Description: Casein substrate (from bovine milk, hydrolyzed and partially dephosphorylated mixture of α, β and κ caseins, obtained from Sigma Aldrich, catalogue #C4765, diluted in distilled water to a final concentration of 1 mg/mL, assay concentration 20 μM) and full-length recombinant human Nek7 (expressed by baculovirus in Sf9 insect cells using a N-terminal GST tag, obtained from SignalChem, catalogue #N09-10G, 0.1 μg/μL, assay concentration 70 nM) were mixed in assay buffer (20 mM Hepes pH 7.5, 10 mM MgCl2, 1 mM EGTA, 0.02% Brij35, 0.02 mg/ml BSA, 0.1 mM […], 2 mM DTT, 1% DMSO). Compounds of interest (in DMSO, serial 3-fold dilution from 10 μM to 0.5 nM) or control (1% DMSO) were dispensed into the kinase reaction mixture by Acoustic technology (Echo550; nanoliter range). After incubation at room temperature for 20 minutes, the kinase reaction was initiated by addition of [^32P]-ATP (Specific activity 10 μCi/μl) and the mixture was incubated at room temperature for 2 hours. The reaction was then stopped by spotting the reaction mixture on strips of phosphocellulose P81 paper. Following washing, the radioactivity of the P81 paper was measured and kinase activity data were expressed as the percent remaining kinase activity in test samples compared to vehicle (dimethyl sulfoxide) reactions. IC50 values and curve fits were obtained using Prism (GraphPad Software).
Representative compounds were tested for inhibitory activity against NEK7 according to the procedure described above.

T1 sequence (Q8TDX7 whole entry): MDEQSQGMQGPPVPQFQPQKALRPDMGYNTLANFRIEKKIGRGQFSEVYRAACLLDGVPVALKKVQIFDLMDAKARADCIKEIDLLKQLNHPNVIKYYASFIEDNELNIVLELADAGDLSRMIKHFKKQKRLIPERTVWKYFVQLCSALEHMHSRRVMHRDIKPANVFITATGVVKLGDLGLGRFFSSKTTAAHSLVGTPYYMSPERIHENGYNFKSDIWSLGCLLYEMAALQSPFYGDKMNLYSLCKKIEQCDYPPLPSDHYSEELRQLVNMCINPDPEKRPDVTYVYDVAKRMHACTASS

Row | SMILES | IC50
1 | CC(C)(O)Cn1cc(-c2ccc3c(c2F)CCN3C(=O)Cc2cc(C(F)(F)F)ccc2F)c2c(N)ncnc21 [Compound I-23, 1-(5-(4-amino-7-(2-hydroxy-2-methylprop-yl)-7H-pyrrolo[2,3-d]-pyrimidin-5-yl)-4-fluoroindolin-1-yl)-2-(2-fluoro-5-(trifluoro-methyl)phenyl)ethan-1-one] | < 0.15 µM
2 | COCCn1cc(-c2ccc3c(c2F)CCN3C(=O)Cc2cc(C(F)(F)F)ccc2F)c2c(N)ncnc21 [Compound I-26, 1-(5-(4-amino-7-(2-methoxyethyl)-7H-pyr-rolo[2,3-d]pyrimidin-5-yl)-4-fluoroindolin-1-yl)-2-(2-fluoro-5-(tri-fluoromethyl)phenyl)-ethan-1-one] | < 0.15 µM
3 | COCCn1nc(-c2ccc3c(c2F)CCN3C(=O)Cc2cc(C(F)(F)F)ccc2F)c2c(N)ncnc21 [Compound I-24, 1-(5-(4-amino-1-(2-methoxyethyl)-1H-pyrazolo[3,4-d]pyrim-idin-3-yl)-4-fluoroindo-lin-1-yl)-2-(2-fluoro-5-(trifluoromethyl)phen-yl)ethan-1-one] | < 0.15 µM
4 | CC(C)n1cc(-c2ccc3c(c2F)CCN3C(=O)Cc2ccc(F)c(C(F)(F)F)c2)c2c(N)ncnc21 [Compound I-13, 1-(5-(4-amino-7-isoprop-yl-7H-pyrrolo[2,3-d]pyr-imidin-5-yl)-4-fluoroind-olin-1-yl)-2-(4-fluoro-3-(trifluoromethyl)phenyl)-ethan-1-one] | 0.151 to 0.3 µM
5 | Nc1ncnc2c1c(-c1ccc3c(c1F)CCN3C(=O)Cc1cccc(C(F)(F)F)n1)cn2C1CC1 [Compound I-20, 1-(5-(4-amino-7-cyclo-propyl-7H-pyrrolo[2,3-d]pyrimidin-5-yl)-4-fluoroindolin-1-yl)-2-(6-(trifluoromethyl)pyr-idin-2-yl)ethan-1-one] | < 0.15 µM
6 | Cc1cccc(CC(=O)N2CCc3c2ccc(-c2cn(C4CC4)c4ncnc(N)c24)c3F)n1 [Compound I-21, 1-(5-(4-amino-7-cyclo-propyl-7H-pyrrolo[2,3-d]pyrimidin-5-yl)-4-fluoroindolin-1-yl)-2-(6-methylpyridin-2-yl)-ethan-1-one] | < 0.15 µM
7 | CN1CCN(Cc2cc(CC(=O)N3CCc4c3ccc(-c3cn(C5CC5)c5ncnc(N)c35)c4F)cc(C(F)(F)F)c2)CC1 [Compound I-32, 1-(5-(4-amino-7-cyclo-propyl-7H-pyrrolo[2,3-d]pyrimidin-5-yl)-4-fluoroindolin-1-yl)-2-(3-((4-methylpiperazin-1-yl)methyl)-5-(tri-fluoromethyl)phenyl)-ethan-1-one] | > 1.5 µM
8 | CC(C)n1nc(-c2ccc3c(c2F)CCN3C(=O)Cc2ccc(F)cc2)c2c(N)ncnc21 [Compound I-3, 1-(5-(4-amino-1-iso-propyl-1H-pyrazolo[3,4-d]pyrimidin-3-yl)-4-fluoroindolin-1-yl)-2-(4-fluorophenyl)ethan-1-one] | > 1.5 µM
9 | Nc1ncnc2[nH]cc(-c3ccc4c(c3F)CCN4C(=O)Cc3cc(C(F)(F)F)ccc3F)c12 [Compound I-22, 1-(5-(4-amino-7H-pyr-rolo[2,3-d]pyrimidin-5-yl)-4-fluoroindolin-1-yl)-2-(2-fluoro-5-(tri-fluoromethyl)phenyl)-ethan-1-one] | < 0.15 µM
10 | CN1CCN(Cc2ccc(C(F)(F)F)cc2CC(=O)N2CCc3c2ccc(-c2cn(C4CC4)c4ncnc(N)c24)c3F)CC1 [Compound I-30, 1-(5-(4-amino-7-cyclo-propyl-7H-pyrrolo[2,3-d]pyrimidin-5-yl)-4-fluoroindolin-1-yl)-2-(2-((4-methylpiperazin-1-yl)methyl)-5-(trifluoro-methyl)phenyl)ethan-1-one] | > 1.5 µM
11 | Nc1ncnc2c1c(-c1ccc3c(c1F)CCN3C(=O)Cc1cc(C(F)(F)F)ccc1F)cn2CCC(=O)O [Compound I-34, 3-(4-amino-5-(4-fluoro-1-(2-(2-fluoro-5-(tri-fluoromethyl)phenyl)-acetyl)indolin-5-yl)-7H-pyrrolo[2,3-d]pyrimidin-7-yl)propanoic acid] | < 0.15 µM
12 | CN1CCN(Cc2ccc(CC(=O)N3CCc4c3ccc(-c3cn(C5CC5)c5ncnc(N)c35)c4F)cc2C(F)(F)F)CC1 [Compound I-25, 1-(5-(4-amino-7-cyclo-propyl-7H-pyrrolo[2,3-d]pyrimidin-5-yl)-4-fluoroindolin-1-yl)-2-(4-((4-methylpiperazin-1-yl)methyl)-3-(tri-fluoromethyl)phenyl)-ethan-1-one] | 0.301 to 0.5 µM
13 | Nc1ncnc2c1c(-c1ccc3c(c1F)CCN3C(=O)Cc1cc(C(F)(F)F)ccc1F)cn2C1CC(O)C1 (centres unmarked) [Compound I-27, 1-(5-(4-amino-7-(3-hydroxycyclobutyl)-7H-pyrrolo[2,3-d]pyrimidin-5-yl)-4-fluoroindolin-1-yl)-2-(2-fluoro-5-(tri-fluoromethyl)phenyl)-ethan-1-one] | < 0.15 µM
14 | Nc1nccc2c1c(-c1ccc3c(c1F)CCN3C(=O)Cc1cc(C(F)(F)F)ccc1F)nn2C1CC1 [Compound I-29, 1-(5-(4-amino-1-cyclo-propyl-1H-pyrazolo[4,3-c]pyridin-3-yl)-4-fluoro-indolin-1-yl)-2-(2-fluoro-5-(trifluoromethyl)phen-yl)ethan-1-one] | < 0.15 µM
15 | Nc1ncnc2c1c(-c1ccc3c(c1F)CCN3C(=O)Cc1cc(C(F)(F)F)ccc1F)cn2CCO [Compound I-18, 1-(5-(4-amino-7-(2-hydroxyethyl)-7H-pyr-rolo[2,3-d]pyrimidin-5-yl)-4-fluoroindolin-1-yl)-2-(2-fluoro-5-(tri-fluoromethyl)phenyl)-ethan-1-one] | < 0.15 µM
16 | CN1CCC(n2cc(-c3ccc4c(c3F)CCN4C(=O)Cc3cc(C(F)(F)F)ccc3F)c3c(N)ncnc32)CC1 [Compound I-28, 1-(5-(4-amino-7-(1-methylpiperidin-4-yl)-7H-pyrrolo[2,3-d]pyr-imidin-5-yl)-4-fluoro-indolin-1-yl)-2-(2-fluoro-5-(trifluorometh-yl)phenyl)ethan-1-one] | < 0.15 µM
17 | Nc1ncnc2c1c(-c1ccc3c(c1Cl)CCN3C(=O)Cc1cc(C(F)(F)F)ccc1F)nn2C1CC1 [Compound I-15, 1-(5-(4-amino-1-cyclo-propyl-1H-pyrazolo[3,4-d]pyrimidin-3-yl)-4-chloroindolin-1-yl)-2-(2-fluoro-5-(trifluoro-methyl)phenyl)ethan-1-one] | < 0.15 µM
18 | CN1CCCC(n2cc(-c3ccc4c(c3F)CCN4C(=O)Cc3cc(C(F)(F)F)ccc3F)c3c(N)ncnc32)C1 (centres unmarked) [Compound I-31, 1-(5-(4-amino-7-(1-methylpiperidin-3-yl)-7H-pyrrolo[2,3-d]pyr-imidin-5-yl)-4-fluoroin-dolin-1-yl)-2-(2-fluoro-5-(trifluoromethyl)phen-yl)ethan-1-one] | < 0.15 µM
19 | Nc1ncnc2c1c(-c1ccc3c(c1F)CCN3C(=O)Cc1cc(C(F)(F)F)ccc1F)nn2CCO [Compound I-19, 1-(5-(4-amino-1-(2-hydroxyethyl)-1H-pyr-azolo[3,4-d]pyrimidin-3-yl)-4-fluoroindolin-1-yl)-2-(2-fluoro-5-(tri-fluoromethyl)phenyl)-ethan-1-one] | < 0.15 µM
20 | CN1CC(n2cc(-c3ccc4c(c3F)CCN4C(=O)Cc3cc(C(F)(F)F)ccc3F)c3c(N)ncnc32)C1 [Compound I-33, 1-(5-(4-amino-7-(1-methylazetidin-3-yl)-7H-pyrrolo[2,3-d]pyr-imidin-5-yl)-4-fluoroin-dolin-1-yl)-2-(2-fluoro-5-(trifluoromethyl)phen-yl)ethan-1-one] | < 0.15 µM
